Data set [1] relates to THLE2 and/or PH5CH (normal hepatocyte-derived) cell versus Huh7. In words: Selectivity of cytotoxicity: CC50 in normal hepatocyte-derived cells versus liver cancer derived cells (MTT assay). It counts as cell-based. Conditions: ratio of CC50 between Huh7 and THLE2 and/or PH5CH (normal hepatocyte-derived) cell. The text has this:
(§1) Huh-7 cells and derived from hepatocellular carcinoma cells, and were donated by Dr. Xuanyong Lu, (Drexel University College of Medicine, Doylestown, Pa.). THLE-2 were purchased from American Type Culture Collection (Manassas, Va.). PH5CH were donated by Dr. Masayuki Noguchi (University of Tsukuba, Ibaraki, Japan). THLE-2 and PH5CH have been immortalized through stable transfection of the SV40 large T antigen in normal hepatocytes, and are thus cell lines that are representative of normal hepatocytes rather than HCC cells. […] All cell lines were cultured and maintained in 5% CO2 at 37° C. Huh-7 were maintained in the culture media DMEM/F12 (Dulbecco's Modified Eagle Medium) with 10% Fetal bovine serum (FBS), 100 µg/mL penicillin, 100 units/mL streptomycin, and 50 µg/mL normocin. THLE-2 and PH5CH were maintained in the culture media Brochial Epithelial Growth Media (BEGM) with 10% FBS, 100 µg/mL penicillin, 100 units/mL streptomycin, with the following additives form the prepackaged kit: Bovine pituitary extract (BPE), insulin, hydrocortisone, retinoic acid, transferrin, triiodothyronine, supplemented with 5 ng/ml human epidermal growth factor and 70 ng/ml phosphoethanolamine (Lonza Walkersville Inc., Walkersville, Md.).
(§2) Huh7 cells were plated on 96-well plates at 2.0×10^4 cells per well to permit grow in the presence of compounds of the disclosure. Compounds of the disclosure were prediluted and transferred to cell plates by automated liquid handling. Cells were incubated with compounds of the disclosure for 72 hours, after which culture growth and viability were assessed by addition of 50 µg/mL 3-(4,5-Dimethyl-2-thiazolyl)-2,5-diphenyl-2H-tetrazolium bromide (MTT) incubation for 4 hours at 37° C. Solubilization buffer (0.01M HCl, 10% SDS) was added followed by incubation at 37° C. overnight. Absorbance was measured at 570 nm (reference 630 nm). […] Each compound was tested from 2 to 7 times in separate assay trials.
Selectivity of toxicity in HCC-derived cells over normal liver-derived cells is important for the purposes of developing a therapy that specifically targets the cancer with low toxcity for the […]. The Selective Index (SI) is the ratio of CC50 in normal cells (THLE2 or PHSCH) over the CC50 in the liver cancer derived cells; thus, the higher the number, the lower the potential toxicity at an efficacious dose.
Selectivity in table 6 is defined as the ratio of CC50 between Huh7 and THLE2 and/or PH5CH (normal hepatocyte-derived) cell.
(In general: Tetrazolium assays rely on reduction of a dye to a coloured formazan, in cell work by metabolically active cells.)

Data set [2] is described as follows: MTT cell viability / cytotoxicity assay (CC50), 72 hours. The conditions noted are these: human, 72 hours incubation, concentration that reduces signal of viable cells by 50%, table title names Huh-7, THLE2 and PH5CH cells, cell line not given. It counts as cell-based.
Text: as §1
as §2, with “nm). Compound of the disclosure were tested in Huh7, THLE-2 and PH5CH, over eight-point dilutions in half-log steps, testing 50.0, 16.6, 5.0, 1.66, 0.5, 0.166, 0.05, and 0.016 µM in 0.5% DMSO, with each concentration in duplicate wells.” for “nm).”

Here are results for 28 molecules from US10913734B2, “Substituted aminothiazoles” (BARUCH S. BLUMBERG INSTITUTE, priority 2016, dated 2021).

As a reminder, the CC50 is the concentration at which the toxic effect on the cells reaches its halfway point. A low value points to harm at low concentration.

Structures are written as SMILES. Some results are limits rather than exact numbers.

Turning to `c1ccc(-c2csc(NCc3ncccn3)n2)nc1` [Entry 2], the Selectivity in data set [1] is given as at most 5.0. For the same molecule, in data set [2], the CC50 at 72 h was under 50 µM.

Take `O=C(Nc1ncccn1)Nc1nc(-c2ccccn2)cs1` [Entry 3]: the Selectivity in data set [1] is reported as at most 5.0. This molecule yielded a CC50 at 72 h in data set [2] of at least 50 µM.

Turning to `CCOC(=O)c1sc(Nc2nccc(C)n2)nc1-c1ncccc1C` [Entry 4], in data set [1], the Selectivity was at most 5.0. The molecule also registered a cytotoxic concentration (CC50) at 72 h in data set [2] of at least 50 µM.

As for `CCOC(=O)c1sc(NCc2ncccn2)nc1-c1ncccc1C` [Entry 5], in data set [1], the Selectivity was at most 5.0. In data set [2], this molecule returned a CC50 at 72 h of at least 50 µM.

As to `CCOCc1sc(Nc2ncccn2)nc1-c1ccccn1` [Entry 6], the Selectivity in data set [1] is reported as over 5.0. Further, the CC50 at 72 h in data set [2] is under 50 µM.

Turning to `CCOCc1sc(Nc2nccc(C)n2)nc1-c1ccccn1` [Entry 7], in data set [1], the Selectivity was at most 5.0. For the same molecule, in data set [2], the CC50 at 72 h is under 50 µM.

`CCOCc1sc(NCc2ncccn2)nc1-c1ccccn1` [Entry 8]: the Selectivity in data set [1] was at most 5.0. In addition, the CC50 at 72 h in data set [2] was at least 50 µM.

`CCOC(=O)CCc1sc(Nc2ncccn2)nc1-c1ccccn1` [Entry 9]: the Selectivity in data set [1] was over 5.0. The molecule also came in with a CC50 at 72 h in data set [2] of under 50 µM.

Turning to `CCOC(=O)CCc1sc(NCc2ncccn2)nc1-c1ccccn1` [Entry 10], the Selectivity in data set [1] is at most 5.0. For the same molecule, the CC50 at 72 h in data set [2] is at least 50 µM.

For `O=C(O)CCc1sc(Nc2ncccn2)nc1-c1ccccn1` [Entry 11], in data set [1], the Selectivity is recorded as at most 5.0. The same molecule displayed a 50% cytotoxic concentration (CC50) at 72 h in data set [2] of under 50 µM.

`O=C([O-])CCc1sc(Nc2ncccn2)nc1-c1ccccn1.[Na+]` [Entry 12]: the Selectivity in data set [1] is on record as at most 5.0.

With `O=C(O)CCc1sc(NCc2ncccn2)nc1-c1ccccn1` [Entry 13], the Selectivity in data set [1] is listed as at most 5.0. Moreover, in data set [2], the CC50 at 72 h was at least 50 µM.

For the molecule `O=C([O-])CCc1sc(NCc2ncccn2)nc1-c1ccccn1.[Na+]` [Entry 14], the Selectivity in data set [1] is at most 5.0.

Consider `CCOC(=O)Cc1sc(Nc2ncccn2)nc1-c1ccccn1` [Entry 15], for which the Selectivity in data set [1] is on record as over 5.0. In data set [2], this molecule displayed a CC50 at 72 h of under 50 µM.

With `CCOC(=O)Cc1sc(NCc2ncccn2)nc1-c1ccccn1` [Entry 16], the Selectivity in data set [1] was at most 5.0. Moreover, the CC50 at 72 h in data set [2] is under 50 µM.

For the molecule `CCOC(=O)c1sc(NCc2ncccn2)nc1-c1ccccn1` [Entry 17], the Selectivity in data set [1] is recorded as at most 5.0. The molecule also had a CC50 at 72 h in data set [2] of at least 50 µM.

For `CCOC(=O)Cc1sc(Nc2nccc(C)n2)nc1-c1ccccn1` [Entry 18], the Selectivity in data set [1] was at most 5.0. This molecule also yielded a CC50 at 72 h in data set [2] of under 50 µM.

As for `CC(C)OC(=O)c1sc(Nc2ncccn2)nc1-c1ncccn1` [Entry 19], the Selectivity in data set [1] is over 5.0. Besides, in data set [2], the CC50 at 72 h is under 50 µM.

For the molecule `CCOC(=O)c1sc(Nc2ncccn2)nc1-c1cnccn1` [Entry 20], the Selectivity in data set [1] was over 5.0. The molecule further displayed a CC50 at 72 h in data set [2] of under 50 µM.

Regarding `CC(C)OC(=O)c1sc(Nc2ncccn2)nc1-c1ccccn1` [Entry 21], the Selectivity in data set [1] is over 5.0. This molecule also showed a cytotoxic concentration (CC50) at 72 h in data set [2] of under 50 µM.

Take `CC(C)OC(=O)C1=C(c2ccncn2)NC(Nc2ncccn2)S1` (stereo not drawn) [Entry 22]: in data set [1], the Selectivity was over 5.0. The molecule also yielded a CC50 at 72 h in data set [2] of under 50 µM.

For the molecule `CCOC(=O)c1sc(Nc2ncccn2)nc1-c1ccncn1` [Entry 23], in data set [1], the Selectivity is over 5.0. This molecule yielded a CC50 at 72 h in data set [2] of under 50 µM.

`CCOC(=O)c1sc(Nc2ncccn2)nc1-c1cc(C(F)(F)F)ccn1` [Entry 24]: in data set [1], the Selectivity is listed as over 5.0. Further, the CC50 at 72 h in data set [2] is under 50 µM.

With `CC(C)OC(=O)c1sc(Nc2ncccn2)nc1-c1cnccn1` [Entry 25], the Selectivity in data set [1] is listed as over 5.0. For the same molecule, in data set [2], the CC50 at 72 h was under 50 µM.

Turning to `CC(C)OC(=O)OCN(c1ncccn1)c1nc(-c2cnccn2)c(C(=O)OC(C)C)s1` [Entry 26], the Selectivity in data set [1] is over 5.0. In data set [2], this molecule came in with a half-maximal cytotoxic concentration (CC50) at 72 h of under 50 µM.

Turning to `CC(C)OC(=O)c1sc(N(COP(=O)(OC(C)(C)C)OC(C)(C)C)c2ncccn2)nc1-c1ccccn1` [Entry 27], the Selectivity in data set [1] is listed as over 5.0. Further, the CC50 at 72 h in data set [2] was under 50 µM.

As for `CC(C)OC(=O)c1sc(N(COP(=O)(OC(C)(C)C)OC(C)(C)C)c2ncccn2)nc1-c1cnccn1` [Entry 28], the Selectivity in data set [1] was over 5.0. In data set [2], the CC50 at 72 h was under 50 µM.

Turning to `COCCOCN(c1ncccn1)c1nc(-c2cnccn2)c(C(=O)OC(C)C)s1` [Entry 29], the Selectivity in data set [1] was at most 5.0. Further, the CC50 at 72 h in data set [2] is at least 50 µM.
